# Results taken from ChEMBL document CHEMBL1201862, “PubChem BioAssay data set” (2004).
# Active and inactive are the calls of the source.
# Legend:
# [1] = molecular target: Protein Wnt-3a (Mus musculus, UniProt P27467); experiment: antagonism of Wnt3a pathway luciferase reporter – Wnt-LIGHT cells, luminescence, selectivity assay for Gli-SUFU antagonist project, dose response (AID 651570); format: functional; details: read-out: IC50_Mean;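 note: Wnt-LIGHT reporter cells stimulated with conditioned medium from Wnt3a-producing cells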
# Protein Wnt-3a, sequence (P27467 whole entry): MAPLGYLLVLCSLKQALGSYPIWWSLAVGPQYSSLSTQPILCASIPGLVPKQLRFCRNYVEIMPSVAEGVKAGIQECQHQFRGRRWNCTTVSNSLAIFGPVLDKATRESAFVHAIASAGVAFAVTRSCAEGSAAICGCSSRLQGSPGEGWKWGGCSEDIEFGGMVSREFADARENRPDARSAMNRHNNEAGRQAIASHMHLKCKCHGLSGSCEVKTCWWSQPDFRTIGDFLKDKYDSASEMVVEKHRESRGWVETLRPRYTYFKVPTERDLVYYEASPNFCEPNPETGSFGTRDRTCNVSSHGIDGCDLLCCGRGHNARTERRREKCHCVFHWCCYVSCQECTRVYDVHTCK
# [2] = NIH-3T3 fibroblast cytotoxicity, dose response, cytotoxicity control, cell-based, fluorescence, Alamar Blue, secondary assay (AID 2327); format: functional;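 note: NIH-3T3 mouse fibroblasts cultured with fluconazole at 8 µg/mL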
# [3] = fluconazole-exposed Candida albicans growth modulators – fluorescence, retest, confirmation (AID 2467); format: functional, cell-based
# [4] = Trypanosoma cruzi growth suppression in host cells – NIH3T3 host cells, beta-gal luminescence, confirmation (AID 2044); format: functional, cell-based;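 note: intracellular parasites grown in NIH/3T3 mouse fibroblasts as host cells; luminescent beta-galactosidase reporter signal from transgenic T. cruzi replicating inside host cells; inhibitors lower the luminescence signal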
# [5] = NIH3T3 cell viability loss – ATP luminescence, mouse fibroblasts, counter-screen, dose response (AID 2010); format: functional, cell-based;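 note: cells exposed to compound for about 90 hours before reading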
# [6] = molecular target: ADP-ribosylation factor GTPase-activating protein 1 (Rattus norvegicus, UniProt Q62848); experiment: Fluorescence polarization-based biochemical high throughput dose response screening assay to identify inhibitors of ADP-ribosylation factor GTPase activating protein 1 (ARFGAP1).; format: functional
# ADP-ribosylation factor GTPase-activating protein 1, sequence (Q62848 whole entry): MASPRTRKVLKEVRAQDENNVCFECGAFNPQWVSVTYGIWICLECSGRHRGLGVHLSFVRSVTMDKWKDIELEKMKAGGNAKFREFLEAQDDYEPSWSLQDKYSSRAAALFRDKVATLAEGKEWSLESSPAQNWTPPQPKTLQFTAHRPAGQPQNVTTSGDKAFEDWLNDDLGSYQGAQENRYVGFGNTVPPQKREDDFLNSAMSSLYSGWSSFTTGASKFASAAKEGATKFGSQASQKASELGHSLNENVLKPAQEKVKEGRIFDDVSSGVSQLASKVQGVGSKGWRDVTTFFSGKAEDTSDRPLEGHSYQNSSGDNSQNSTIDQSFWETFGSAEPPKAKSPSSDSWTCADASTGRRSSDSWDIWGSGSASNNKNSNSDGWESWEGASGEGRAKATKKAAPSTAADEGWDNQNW
# [7] = molecular target: T1, Histone-lysine N-methyltransferase NSD2 (Homo sapiens, UniProt O96028); format: biochemical
# T1 sequence (O96028 whole entry): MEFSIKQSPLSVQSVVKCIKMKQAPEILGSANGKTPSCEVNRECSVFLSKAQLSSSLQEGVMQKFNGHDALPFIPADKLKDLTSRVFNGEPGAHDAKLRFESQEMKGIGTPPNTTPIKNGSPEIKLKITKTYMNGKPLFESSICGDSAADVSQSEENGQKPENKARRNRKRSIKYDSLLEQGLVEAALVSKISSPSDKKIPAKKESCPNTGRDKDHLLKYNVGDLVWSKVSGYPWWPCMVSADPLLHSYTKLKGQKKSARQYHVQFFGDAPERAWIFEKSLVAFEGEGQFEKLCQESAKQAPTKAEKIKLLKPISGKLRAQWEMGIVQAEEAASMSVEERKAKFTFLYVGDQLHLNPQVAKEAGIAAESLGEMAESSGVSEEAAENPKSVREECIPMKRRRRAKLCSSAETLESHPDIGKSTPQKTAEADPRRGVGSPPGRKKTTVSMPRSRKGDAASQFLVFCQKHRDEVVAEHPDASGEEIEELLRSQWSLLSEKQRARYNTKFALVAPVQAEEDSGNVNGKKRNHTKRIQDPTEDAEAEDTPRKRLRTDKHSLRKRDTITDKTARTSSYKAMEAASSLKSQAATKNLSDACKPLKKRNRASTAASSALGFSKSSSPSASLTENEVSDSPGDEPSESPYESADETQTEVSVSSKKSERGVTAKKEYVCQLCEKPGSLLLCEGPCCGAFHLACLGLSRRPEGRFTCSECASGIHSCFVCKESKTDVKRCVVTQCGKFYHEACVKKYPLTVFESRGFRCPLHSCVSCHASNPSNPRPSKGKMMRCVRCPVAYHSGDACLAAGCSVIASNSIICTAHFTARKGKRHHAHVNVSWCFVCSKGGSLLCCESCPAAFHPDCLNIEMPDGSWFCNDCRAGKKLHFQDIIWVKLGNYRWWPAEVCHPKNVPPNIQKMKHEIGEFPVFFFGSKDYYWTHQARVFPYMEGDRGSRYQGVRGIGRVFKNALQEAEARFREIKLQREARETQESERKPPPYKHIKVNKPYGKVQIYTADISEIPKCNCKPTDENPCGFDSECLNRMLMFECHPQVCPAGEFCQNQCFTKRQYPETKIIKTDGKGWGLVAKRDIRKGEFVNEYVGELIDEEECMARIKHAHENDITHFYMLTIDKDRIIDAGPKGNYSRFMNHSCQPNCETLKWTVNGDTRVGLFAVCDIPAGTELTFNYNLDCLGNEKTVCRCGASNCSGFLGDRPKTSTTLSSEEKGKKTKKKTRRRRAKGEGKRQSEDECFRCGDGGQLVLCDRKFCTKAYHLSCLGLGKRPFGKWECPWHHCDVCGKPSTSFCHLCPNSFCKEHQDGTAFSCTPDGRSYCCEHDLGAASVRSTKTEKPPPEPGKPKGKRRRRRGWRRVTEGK
# [8] = molecular target: T2, Carboxy-terminal domain RNA polymerase II polypeptide A small phosphatase 1 (Homo sapiens, UniProt Q9GZU7); experiment: CTDSP1 inhibitors, concentration-response, biochemical, absorbance readout, ultra-high-throughput screen actives (AID 540297); format: functional
# T2 sequence (Q9GZU7 whole entry): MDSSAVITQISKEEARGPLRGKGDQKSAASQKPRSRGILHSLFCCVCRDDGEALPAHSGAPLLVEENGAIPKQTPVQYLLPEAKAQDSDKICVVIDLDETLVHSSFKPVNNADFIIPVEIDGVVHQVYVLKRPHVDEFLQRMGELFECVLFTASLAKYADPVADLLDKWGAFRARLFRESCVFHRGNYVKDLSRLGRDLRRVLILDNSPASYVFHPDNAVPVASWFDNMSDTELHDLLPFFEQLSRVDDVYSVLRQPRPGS
# [9] = molecular target: T3, RNA-binding protein pos-1 (Caenorhabditis elegans, UniProt G5EF15); experiment: disruptors of C. elegans POS-1 RNA interaction – biochemical, fluorescence polarization, dose response (AID 1964);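 note: purified POS-1 fused to maltose binding protein made in E. coli; potency of compounds blocking POS-1 binding to fluorescent RNA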
# T3 sequence (G5EF15 whole entry): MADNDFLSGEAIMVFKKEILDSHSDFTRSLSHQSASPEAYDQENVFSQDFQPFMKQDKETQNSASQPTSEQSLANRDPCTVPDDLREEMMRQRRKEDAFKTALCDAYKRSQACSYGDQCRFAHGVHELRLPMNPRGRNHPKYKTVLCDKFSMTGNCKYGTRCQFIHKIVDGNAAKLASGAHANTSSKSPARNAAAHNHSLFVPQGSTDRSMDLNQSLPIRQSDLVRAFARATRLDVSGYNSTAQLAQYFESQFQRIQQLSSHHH
# [10] = molecular target: DNA (cytosine-5)-methyltransferase 1 (Homo sapiens, UniProt P26358); experiment: inhibition of DNA methylation by DNMT1 – biochemical, fluorescent molecular beacon, confirmation (AID 602386); format: functional
# DNA (cytosine-5)-methyltransferase 1, sequence (P26358 whole entry): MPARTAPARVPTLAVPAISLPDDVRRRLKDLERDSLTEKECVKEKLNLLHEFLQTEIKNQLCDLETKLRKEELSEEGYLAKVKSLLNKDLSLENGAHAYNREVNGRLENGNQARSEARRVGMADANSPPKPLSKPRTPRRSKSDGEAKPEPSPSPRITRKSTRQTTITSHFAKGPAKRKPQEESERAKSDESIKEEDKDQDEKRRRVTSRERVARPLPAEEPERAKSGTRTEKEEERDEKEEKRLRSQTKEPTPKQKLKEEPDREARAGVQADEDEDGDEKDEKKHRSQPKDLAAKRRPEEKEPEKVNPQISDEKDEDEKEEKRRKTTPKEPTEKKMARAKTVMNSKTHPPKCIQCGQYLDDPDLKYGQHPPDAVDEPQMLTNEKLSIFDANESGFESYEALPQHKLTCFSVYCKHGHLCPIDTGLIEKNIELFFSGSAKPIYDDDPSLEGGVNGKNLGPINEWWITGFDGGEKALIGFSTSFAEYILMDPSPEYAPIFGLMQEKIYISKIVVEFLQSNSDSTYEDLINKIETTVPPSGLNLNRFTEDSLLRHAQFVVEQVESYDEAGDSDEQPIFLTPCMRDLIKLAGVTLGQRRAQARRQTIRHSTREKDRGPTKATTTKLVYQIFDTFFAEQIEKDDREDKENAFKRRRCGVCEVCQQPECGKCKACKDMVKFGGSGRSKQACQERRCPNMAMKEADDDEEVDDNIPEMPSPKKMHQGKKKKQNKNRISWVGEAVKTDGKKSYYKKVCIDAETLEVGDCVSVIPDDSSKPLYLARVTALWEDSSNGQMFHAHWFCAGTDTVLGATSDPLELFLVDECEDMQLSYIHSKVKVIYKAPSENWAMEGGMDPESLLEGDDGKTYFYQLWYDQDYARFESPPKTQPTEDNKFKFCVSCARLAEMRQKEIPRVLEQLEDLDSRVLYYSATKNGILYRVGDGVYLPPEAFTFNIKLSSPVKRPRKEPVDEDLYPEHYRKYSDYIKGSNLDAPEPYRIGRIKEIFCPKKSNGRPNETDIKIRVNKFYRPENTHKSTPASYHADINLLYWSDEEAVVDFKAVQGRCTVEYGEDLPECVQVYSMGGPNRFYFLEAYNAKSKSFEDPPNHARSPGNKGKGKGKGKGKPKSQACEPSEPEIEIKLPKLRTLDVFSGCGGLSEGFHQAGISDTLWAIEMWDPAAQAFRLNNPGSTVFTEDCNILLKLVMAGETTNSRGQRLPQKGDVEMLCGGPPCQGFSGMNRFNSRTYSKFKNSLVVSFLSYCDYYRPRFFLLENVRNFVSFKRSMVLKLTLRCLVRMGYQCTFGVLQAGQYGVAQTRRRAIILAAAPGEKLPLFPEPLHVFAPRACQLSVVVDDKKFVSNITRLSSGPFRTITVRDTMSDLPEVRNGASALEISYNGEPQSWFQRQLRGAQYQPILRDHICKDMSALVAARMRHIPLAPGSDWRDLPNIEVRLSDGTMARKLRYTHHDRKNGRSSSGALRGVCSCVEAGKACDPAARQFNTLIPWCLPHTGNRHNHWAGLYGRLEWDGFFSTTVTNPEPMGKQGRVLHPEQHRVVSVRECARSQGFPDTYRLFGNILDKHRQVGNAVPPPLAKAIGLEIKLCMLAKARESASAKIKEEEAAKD
# [11] = molecular target: T4, Zinc finger protein mex-5 (Caenorhabditis elegans, UniProt Q9XUB2); experiment: potency of MEX-5 RNA-binding blockers – biochemical, C. elegans, fluorescence polarization, dose response (AID 1960)
# T4 sequence (Q9XUB2 whole entry): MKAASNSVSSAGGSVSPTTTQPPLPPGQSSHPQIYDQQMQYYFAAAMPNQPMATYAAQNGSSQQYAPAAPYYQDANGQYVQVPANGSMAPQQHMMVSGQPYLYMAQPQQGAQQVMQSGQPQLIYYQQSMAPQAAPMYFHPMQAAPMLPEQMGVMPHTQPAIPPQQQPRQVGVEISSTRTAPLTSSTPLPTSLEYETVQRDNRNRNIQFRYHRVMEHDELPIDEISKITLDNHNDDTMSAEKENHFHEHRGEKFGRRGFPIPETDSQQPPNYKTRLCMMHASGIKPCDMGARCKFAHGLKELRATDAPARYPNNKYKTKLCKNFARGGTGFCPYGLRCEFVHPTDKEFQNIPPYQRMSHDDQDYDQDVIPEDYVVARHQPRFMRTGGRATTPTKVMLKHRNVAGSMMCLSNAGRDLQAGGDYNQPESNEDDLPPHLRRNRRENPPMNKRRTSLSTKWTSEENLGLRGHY
# [12] = molecular target: Induced myeloid leukemia cell differentiation protein Mcl-1 (Homo sapiens, UniProt Q07820); format: functional
# Induced myeloid leukemia cell differentiation protein Mcl-1, sequence (Q07820 whole entry): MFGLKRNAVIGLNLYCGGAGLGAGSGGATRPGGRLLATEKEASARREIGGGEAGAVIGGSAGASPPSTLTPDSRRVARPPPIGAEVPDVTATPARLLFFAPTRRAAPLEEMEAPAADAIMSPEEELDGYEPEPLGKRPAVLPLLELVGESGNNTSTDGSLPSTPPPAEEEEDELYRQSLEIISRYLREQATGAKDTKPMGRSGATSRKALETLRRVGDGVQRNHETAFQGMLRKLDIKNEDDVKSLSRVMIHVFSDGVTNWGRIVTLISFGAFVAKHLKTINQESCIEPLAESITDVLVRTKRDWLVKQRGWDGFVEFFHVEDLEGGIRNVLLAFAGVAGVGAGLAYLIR
# [13] = viability of uninfected HEp-2 cells – cell-based, HTS, cytotoxicity control for RSV inhibitor project, dose response (AID 2410); format: functional; details: human respiratory syncytial virus
# [14] = CCR5-tropic HIV-1 fusion blockers – cell-based, CCR5-tropic Env, dose response (AID 2279); format: functional
# [15] = Luminescence Cell-Based Dose Retest to Confirm Inhibitors of Cancer Stem Cells. [Related pubchem assays (depositor defined):AID2717, AID2721]; format: functional; details: Homo sapiens
# [16] = molecular target: T5, Methionyl-tRNA synthetase, putative (Trypanosoma brucei brucei, UniProt Q38C91); format: functional, Trypanosoma brucei brucei strain 927/4 GUTat10.1
# T5 sequence (Q38C91 whole entry): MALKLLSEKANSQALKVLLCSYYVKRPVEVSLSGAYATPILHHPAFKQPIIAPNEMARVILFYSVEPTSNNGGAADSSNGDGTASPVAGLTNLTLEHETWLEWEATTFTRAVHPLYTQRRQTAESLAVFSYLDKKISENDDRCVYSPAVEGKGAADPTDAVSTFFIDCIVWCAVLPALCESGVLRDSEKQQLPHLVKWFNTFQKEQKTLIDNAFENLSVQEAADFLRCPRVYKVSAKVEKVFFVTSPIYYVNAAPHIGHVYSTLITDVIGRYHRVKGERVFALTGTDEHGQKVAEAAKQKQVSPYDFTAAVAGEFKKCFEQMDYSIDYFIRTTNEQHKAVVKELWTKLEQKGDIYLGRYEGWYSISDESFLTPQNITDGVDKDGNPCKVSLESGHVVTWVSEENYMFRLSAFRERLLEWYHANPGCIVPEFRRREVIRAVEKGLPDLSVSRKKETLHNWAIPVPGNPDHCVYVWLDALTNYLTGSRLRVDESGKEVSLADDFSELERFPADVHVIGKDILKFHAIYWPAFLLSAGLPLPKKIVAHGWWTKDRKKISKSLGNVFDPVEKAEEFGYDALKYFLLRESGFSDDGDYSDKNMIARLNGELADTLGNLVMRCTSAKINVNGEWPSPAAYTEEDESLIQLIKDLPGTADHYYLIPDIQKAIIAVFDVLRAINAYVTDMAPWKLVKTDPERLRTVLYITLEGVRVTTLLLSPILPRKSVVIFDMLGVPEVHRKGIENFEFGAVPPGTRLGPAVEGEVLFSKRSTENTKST
# [17] = molecular target: T5, Methionyl-tRNA synthetase, putative; format: functional, Trypanosoma brucei brucei strain 927/4 GUTat10.1; remark: listed apart in the source
# [18] = Counterscreen for inhibitors of Trypanosoma brucei methionyl tRNA synthetase (MetRS): Luminescence-based cell-based high throughput dose response assay to identify compounds that are cytotoxic to Jurkat human T lymphocyte cells.; format: functional
# [19] = molecular target: Photoreceptor-specific nuclear receptor (Homo sapiens, UniProt Q9Y5X4); format: functional, cell-based;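 note: CHO-S cells with Gal4-NCOR and VP16-NR2E3 two-hybrid luciferase reporter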
# Photoreceptor-specific nuclear receptor, sequence (Q9Y5X4 whole entry, the tested form may be a part): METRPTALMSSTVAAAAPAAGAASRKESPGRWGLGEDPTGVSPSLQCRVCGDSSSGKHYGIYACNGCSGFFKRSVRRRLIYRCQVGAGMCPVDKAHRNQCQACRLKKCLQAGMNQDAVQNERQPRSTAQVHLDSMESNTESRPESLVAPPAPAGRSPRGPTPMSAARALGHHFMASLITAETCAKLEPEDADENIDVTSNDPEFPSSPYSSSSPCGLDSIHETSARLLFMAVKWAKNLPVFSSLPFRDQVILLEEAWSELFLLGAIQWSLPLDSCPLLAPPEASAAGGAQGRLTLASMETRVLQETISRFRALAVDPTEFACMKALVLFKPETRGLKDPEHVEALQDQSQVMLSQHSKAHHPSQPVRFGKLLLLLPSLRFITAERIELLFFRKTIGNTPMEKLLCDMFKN
# [20] = HEK-293T viability loss after treatment – luminescence, T-cell screen hits, cytotoxicity control for TCR NF-kB inhibitor project, dose response (AID 489026); format: functional, cell-based;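 note: cells exposed to compound about 14 hours before the viability readout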
# [21] = molecular target: T6, Sentrin-specific protease 8 (Homo sapiens, UniProt Q96LD8); format: functional
# T6 sequence (Q96LD8 whole entry): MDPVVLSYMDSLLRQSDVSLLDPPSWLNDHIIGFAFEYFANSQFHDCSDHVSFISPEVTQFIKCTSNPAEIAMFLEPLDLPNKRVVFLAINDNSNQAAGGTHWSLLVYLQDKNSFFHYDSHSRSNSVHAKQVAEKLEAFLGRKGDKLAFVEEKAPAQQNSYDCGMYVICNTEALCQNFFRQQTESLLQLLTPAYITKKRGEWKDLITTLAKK
# [22] = molecular target: T6, Sentrin-specific protease 8; format: functional; remark: listed apart in the source
# [23] = activation of miR-122 Renilla sensor silencing – cell-based, Huh7 psiCHECK-miR122, Renilla luciferase, cherry-picked, dose response (AID 651956); format: functional;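 note: huh7 hepatoma cells stably carrying a psiCHECK-2 miR-122 sensor plasmid; renilla luciferase signal reporting endogenous miR-122 activity after 48 h compound exposure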
# [24] = general mammalian cell viability loss – inhibitor set, cherry-pick, set 2, cytotoxicity control for miR-122 modulator project, dose response (AID 720697); format: functional, cell-based
# [25] = molecular target: Hepatocyte nuclear factor 4-alpha (Homo sapiens, UniProt P41235); format: functional, cell-based;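 note: biochemical luminescence-based dose-response counterscreen measuring inhibition of HNF4 dimerization, run alongside a screen for blockers of ABHD5–perilipin-5 interaction; split luciferase complementation of HNF4 fusion proteins in cell lysate measuring dimerization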
# Hepatocyte nuclear factor 4-alpha, sequence (P41235 whole entry, the tested form may be a part): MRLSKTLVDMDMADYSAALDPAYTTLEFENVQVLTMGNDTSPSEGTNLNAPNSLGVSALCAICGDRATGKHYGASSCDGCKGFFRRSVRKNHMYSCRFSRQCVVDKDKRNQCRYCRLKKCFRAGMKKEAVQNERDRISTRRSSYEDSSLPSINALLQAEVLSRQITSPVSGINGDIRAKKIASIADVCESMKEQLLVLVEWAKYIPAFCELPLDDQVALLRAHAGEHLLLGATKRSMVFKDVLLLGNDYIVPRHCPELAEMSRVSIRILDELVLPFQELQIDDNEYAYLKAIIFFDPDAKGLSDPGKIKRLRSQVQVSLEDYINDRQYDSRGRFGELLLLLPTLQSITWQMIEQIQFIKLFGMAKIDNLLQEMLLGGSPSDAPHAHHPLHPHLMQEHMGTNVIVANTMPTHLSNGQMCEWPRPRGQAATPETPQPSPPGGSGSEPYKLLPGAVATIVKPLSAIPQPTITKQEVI
# [26] = molecular target: T7, Mitochondrial peptide methionine sulfoxide reductase (Bos taurus, UniProt P54149); format: functional;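 note: absorbance read-out, biochemical high-throughput dose-response screen for MsrA inhibitors, confirmatory; recombinant bovine MsrA coupled to E. coli TrxB with NADPH and selenocystamine; potency is for inhibitors of MsrA activity on DMSO substrate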
# T7 sequence (P54149 whole entry): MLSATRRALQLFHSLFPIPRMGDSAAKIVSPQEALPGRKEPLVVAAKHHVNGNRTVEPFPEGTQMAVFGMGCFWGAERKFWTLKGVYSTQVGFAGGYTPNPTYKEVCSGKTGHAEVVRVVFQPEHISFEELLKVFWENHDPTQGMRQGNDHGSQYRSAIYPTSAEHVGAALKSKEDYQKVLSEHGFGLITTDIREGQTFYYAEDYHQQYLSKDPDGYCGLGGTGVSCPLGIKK
smiles,measurement,setting,value
Cc1c(CCOC(=O)C23CC4CC(CC(C)(C4)C2)C3)sc[n+]1Cc1ccccc1,IC50,[1],32 µM (inactive)
same,EC50,[2],> 150 µM (inactive)
same,EC50,[3],2.08 µM (active)
COc1ccccc1CCNC(=O)c1cc(-c2ccncc2)nc2ccc(Br)cc12,IC50,[1],10.9 µM (active)
same,EC50,[4],0.874 µM (active)
same,EC50,[5],> 60 µM (not active)
COc1ccc(-n2nc3c(N4CCC(C(=O)NCc5ccccc5)CC4)nnc(C)c3c2C)cc1,IC50,[6],40.6 µM (inactive)
CCOc1cccc(N2C(=O)/C(=C/c3ccco3)C(=O)NC2=S)c1,AC50,[7],1.04 µM (active)
same,IC50,[8],1.6 µM (active)
same,EC50,[9],> 300 µM (not active)
same,IC50,[10],4.24 µM (active)
same,EC50,[11],> 300 µM (not active)
O=C(O)CCCCCN1C(=O)/C(=C\c2cn(-c3ccccc3)nc2-c2cccs2)SC1=S,IC50,[12],2.31 µM (active)
same,CC50,[13],12 µM (active)
same,IC50,[14],37.4 µM (active)
same,IC50,[10],6.97 µM (active)
same,AC50,[15],3.54 µM (active)
Cc1nnc(NC(=O)CSc2n[nH]c3c4cc(Br)ccc4nc-3n2)s1,IC50,[16],1.36 µM (active)
same,IC50,[17],3.87 µM (active)
same,IC50,[18],83.3 µM (inactive)
COc1cc2nc(CN3CC=C(c4ccccc4)CC3)nc(O)c2cc1OC,IC50,[19],0.0655 µM (active)
same,IC50,[20],> 80 µM (inactive)
same,AC50,[15],0.609 µM (active)
O=C1NC(=O)C(Nc2ccc(Cl)c(Cl)c2)C(=O)N1,IC50,[21],10.9 µM (active)
same,IC50,[22],8.82 µM (active)
Cc1cc(C(=O)Nc2ccc3c(c2)C(=O)N(C)[C@@H]2CC[C@H](CC(=O)N[C@@H](C)c4ccccc4)O[C@H]2CO3)no1,AC50,[23],57.6 µM (active)
same,AC50,[24],1.12 µM (active)
O=C(Nc1ccc2c(c1)OCCO2)C(c1ccnc2ccccc12)n1c(=O)c(-c2ccco2)nc2ccccc21 (centres undefined),IC50,[25],18.9 µM (inactive)
COc1ccc(/C=N/n2c(S)nnc2C2CCCCC2)c(OC)c1,IC50,[26],155 µM (inactive)
